From ChEMBL document CHEMBL4014322, “Atropisomerism and Conformational Equilibria: Impact on PI3Kδ Inhibition of 2-((6-Amino-9H-purin-9-yl)methyl)-5-methyl-3-(o-tolyl)quinazolin-4(3H)-one (IC87114) and Its Conformationally Restricted Analogs” (J Med Chem, 2017)

Tests used:
[1] = target: PI3-kinase p110-delta/p85-alpha (Homo sapiens, UniProt O00329); experiment: Inhibition of human recombinant full length N-terminal His6-tagged PI3K p110delta/p85alpha expressed in baculovirus infected Sf9 insect cells using PI:PS as substrate after 60 mins by ADP-Glo assay
Sequence of PI3-kinase p110-delta/p85-alpha (P27986 whole entry, one chain of several, canonical isoform): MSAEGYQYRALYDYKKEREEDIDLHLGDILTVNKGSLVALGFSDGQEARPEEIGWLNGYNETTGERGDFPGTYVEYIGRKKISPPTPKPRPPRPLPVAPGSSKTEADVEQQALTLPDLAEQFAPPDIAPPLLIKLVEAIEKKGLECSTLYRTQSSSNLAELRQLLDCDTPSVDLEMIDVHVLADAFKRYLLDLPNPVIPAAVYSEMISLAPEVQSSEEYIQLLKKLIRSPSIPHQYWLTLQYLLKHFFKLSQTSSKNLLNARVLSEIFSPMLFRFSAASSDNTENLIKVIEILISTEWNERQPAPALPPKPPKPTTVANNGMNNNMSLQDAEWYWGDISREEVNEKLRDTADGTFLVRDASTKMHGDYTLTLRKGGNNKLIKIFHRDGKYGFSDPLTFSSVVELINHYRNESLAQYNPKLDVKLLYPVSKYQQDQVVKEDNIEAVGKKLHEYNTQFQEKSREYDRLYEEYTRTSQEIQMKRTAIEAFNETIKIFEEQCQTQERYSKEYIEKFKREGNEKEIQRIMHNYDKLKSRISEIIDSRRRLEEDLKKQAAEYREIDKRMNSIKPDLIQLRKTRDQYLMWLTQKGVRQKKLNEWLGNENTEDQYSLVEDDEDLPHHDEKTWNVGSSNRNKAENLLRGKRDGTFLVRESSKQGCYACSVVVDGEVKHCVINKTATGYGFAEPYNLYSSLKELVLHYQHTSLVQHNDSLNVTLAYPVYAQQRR

[2] = target: T1, Phosphatidylinositol 4,5-bisphosphate 3-kinase catalytic subunit delta isoform (Homo sapiens, UniProt O00329)
T1 sequence (O00329 whole entry): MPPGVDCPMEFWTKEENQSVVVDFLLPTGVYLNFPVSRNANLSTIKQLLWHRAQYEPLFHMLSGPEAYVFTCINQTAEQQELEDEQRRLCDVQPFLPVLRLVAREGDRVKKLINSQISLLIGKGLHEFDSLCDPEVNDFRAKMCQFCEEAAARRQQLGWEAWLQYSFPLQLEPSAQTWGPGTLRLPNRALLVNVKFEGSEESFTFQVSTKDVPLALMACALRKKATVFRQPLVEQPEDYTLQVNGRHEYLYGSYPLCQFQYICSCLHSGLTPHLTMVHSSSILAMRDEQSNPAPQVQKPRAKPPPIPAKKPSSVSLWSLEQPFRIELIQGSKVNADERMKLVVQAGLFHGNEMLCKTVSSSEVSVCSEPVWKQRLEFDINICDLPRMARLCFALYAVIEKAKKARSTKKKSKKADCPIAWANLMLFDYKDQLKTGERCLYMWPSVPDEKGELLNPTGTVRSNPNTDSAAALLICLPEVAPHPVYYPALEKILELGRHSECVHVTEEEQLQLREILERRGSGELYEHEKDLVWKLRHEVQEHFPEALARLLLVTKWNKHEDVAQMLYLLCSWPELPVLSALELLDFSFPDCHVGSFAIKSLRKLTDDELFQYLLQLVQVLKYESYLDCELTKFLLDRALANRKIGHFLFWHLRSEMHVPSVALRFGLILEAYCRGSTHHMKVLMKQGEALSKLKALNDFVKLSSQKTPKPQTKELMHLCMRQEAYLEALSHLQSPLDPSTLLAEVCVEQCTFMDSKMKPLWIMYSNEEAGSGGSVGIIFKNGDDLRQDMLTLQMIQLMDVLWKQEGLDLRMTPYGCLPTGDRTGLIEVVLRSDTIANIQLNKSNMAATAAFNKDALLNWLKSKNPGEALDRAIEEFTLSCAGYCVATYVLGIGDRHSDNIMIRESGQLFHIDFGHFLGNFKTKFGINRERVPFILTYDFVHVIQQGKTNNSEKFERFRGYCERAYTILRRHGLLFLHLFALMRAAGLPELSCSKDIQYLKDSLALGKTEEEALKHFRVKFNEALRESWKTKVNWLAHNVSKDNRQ
Description: Inhibition of PI3Kdelta in human PBMC assessed as reduction in anti-human CD28 antibody stimulated IL-6 secretion levels after 72 hrs by ELISA

Compound	Ki [1]	IC50 [2]
Cc1ccccc1-n1c([C@@H](C)n2cnc3c(N)ncnc32)nc2cccc(C)c2c1=O (stereo in doubt; form 2)	12.6 nM	–
Cc1ccccc1-n1c([C@@H](C)n2cnc3c(N)ncnc32)nc2cccc(C)c2c1=O (stereo in doubt; form 1)	126 nM	–
Cc1cccc2nc(Cn3cnc4c(N)ncnc43)n(-c3ccccc3)c(=O)c12	25.1 nM	50.1 nM
Cc1ccccc1-n1c([C@H](C)n2cnc3c(N)ncnc32)nc2cccc(C)c2c1=O (stereo in doubt; form 2)	1.58 nM	1.26 nM
Cc1ccccc1-n1c([C@H](C)n2cnc3c(N)ncnc32)nc2cccc(C)c2c1=O (stereo in doubt; form 1)	3.16 nM	6.31 nM
